Source: US6511963B1 (priority 1992, dated 2003)
Where two headings read alike, the source gives them in different places. Square brackets hold non-standard residues; d marks the D form. Primed or numbered codes have the meaning given here. Ends that are not written are not given here. Gla′ = gamma-carboxyglutamate (g in names)

Columns and labels:
NMDA receptor [1] = target: T1, NMDA receptor (Rattus norvegicus, UniProt P35439+Q00960); assay: biochemical; type: binding; settings: for Emax: read-out: % Sti
T1 construct: other: test compound in the absence of spermine; concentration at 50% of maximum stimulation; % Sti; spermine = 100; other: with and without spermine; absence of spermine; % STI; absence
T1 sequence (Q00960 27-1482, other chains not shown): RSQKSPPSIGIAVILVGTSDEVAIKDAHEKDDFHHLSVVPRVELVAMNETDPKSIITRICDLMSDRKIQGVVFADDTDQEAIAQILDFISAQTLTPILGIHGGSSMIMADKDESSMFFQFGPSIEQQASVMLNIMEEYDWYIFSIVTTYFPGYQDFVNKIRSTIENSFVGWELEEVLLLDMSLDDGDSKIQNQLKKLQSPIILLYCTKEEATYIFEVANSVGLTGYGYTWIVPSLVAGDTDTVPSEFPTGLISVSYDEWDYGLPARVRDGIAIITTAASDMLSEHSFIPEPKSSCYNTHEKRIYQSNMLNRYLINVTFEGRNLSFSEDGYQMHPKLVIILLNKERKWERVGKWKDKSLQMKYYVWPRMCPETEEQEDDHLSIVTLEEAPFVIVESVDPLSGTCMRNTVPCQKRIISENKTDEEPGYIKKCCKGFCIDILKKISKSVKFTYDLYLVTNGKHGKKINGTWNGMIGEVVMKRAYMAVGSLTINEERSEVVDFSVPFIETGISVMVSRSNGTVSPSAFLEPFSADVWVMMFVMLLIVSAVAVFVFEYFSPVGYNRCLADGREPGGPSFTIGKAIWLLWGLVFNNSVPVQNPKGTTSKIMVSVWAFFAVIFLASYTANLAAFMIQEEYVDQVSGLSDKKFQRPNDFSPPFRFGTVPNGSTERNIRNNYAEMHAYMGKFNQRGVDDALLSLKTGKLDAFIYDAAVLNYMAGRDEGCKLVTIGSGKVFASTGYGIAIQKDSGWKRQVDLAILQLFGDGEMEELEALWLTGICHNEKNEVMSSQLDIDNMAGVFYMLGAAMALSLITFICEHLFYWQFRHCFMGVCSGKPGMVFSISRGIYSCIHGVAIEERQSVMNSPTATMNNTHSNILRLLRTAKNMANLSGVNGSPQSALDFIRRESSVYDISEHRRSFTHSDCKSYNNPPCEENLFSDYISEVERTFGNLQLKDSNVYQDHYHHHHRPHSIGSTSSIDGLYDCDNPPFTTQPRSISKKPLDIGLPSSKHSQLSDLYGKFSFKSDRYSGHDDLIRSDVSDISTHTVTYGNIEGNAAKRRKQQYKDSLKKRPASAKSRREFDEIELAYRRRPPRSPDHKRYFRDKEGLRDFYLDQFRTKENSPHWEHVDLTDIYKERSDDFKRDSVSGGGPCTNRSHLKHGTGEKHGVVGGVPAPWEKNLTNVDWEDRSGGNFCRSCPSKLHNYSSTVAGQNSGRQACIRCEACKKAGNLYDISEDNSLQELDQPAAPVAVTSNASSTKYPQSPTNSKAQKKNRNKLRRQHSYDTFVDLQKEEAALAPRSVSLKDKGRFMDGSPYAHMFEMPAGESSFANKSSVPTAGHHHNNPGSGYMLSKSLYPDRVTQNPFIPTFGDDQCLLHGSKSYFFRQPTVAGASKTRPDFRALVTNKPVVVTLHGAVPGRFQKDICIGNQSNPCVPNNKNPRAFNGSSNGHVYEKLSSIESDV

NMDA receptor [2] = type: binding, rat
[3] = read-out: IC50, inhibition of spermine-enhanced [3H]MK-801 binding

Molecule | % Inh (NMDA receptor [2]) | % Sti (NMDA receptor [1]) | further results
IAEKSN [Ala13, Glul4-Con-G(12-17)] |  |  | activity in [3H]MK-801 binding (spanning cell of Table II) (NMDA receptor [1]): inactive
CC[C@H](C)[C@H](NC(=O)[C@H](CC(C)C)NC(=O)[C@H](CO)NC(=O)[C@H](CCC(N)=O)NC(=O)[C@H](CC(N)=O)NC(=O)[C@H](CC(C(=O)O)C(=O)O)NC(=O)[C@H](CCC(N)=O)NC(=O)[C@H](CC(C)C)NC(=O)[C@H](CC(C(=O)O)C(=O)O)NC(=O)[C@H](CC(C(=O)O)C(=O)O)NC(=O)[C@H](CCC(=O)O)NC(=O)CN)C(=O)N[C@@H](CCCNC(=N)N)C(=O)N[C@@H](CC(C(=O)O)C(=O)O)C(=O)N[C@@H](CCCCN)C(=O)N[C@@H](CO)C(=O)N[C@@H](CC(N)=O)C(N)=O [Ser10-Con-G, GEggLQgNQSLIRgKSN] | 100% |  | Emax (NMDA receptor [1]): 0%; IC50 (NMDA receptor [2]; read-out: Spermine IC): 1800 ± 200 nM
CC[C@H](C)[C@H](NC(=O)[C@H](CC(C)C)NC(=O)[C@@H](CCC(=O)O)NC(=O)[C@H](CCC(N)=O)NC(=O)[C@H](CC(N)=O)NC(=O)[C@@H](CCC(=O)O)NC(=O)[C@H](CCC(N)=O)NC(=O)[C@H](CC(C)C)NC(=O)[C@@H](CCC(=O)O)NC(=O)[C@@H](CCC(=O)O)NC(=O)[C@@H](CCC(=O)O)NC(=O)CN)C(=O)N[C@@H](CCCNC(=N)N)C(=O)N[C@H](CCC(=O)O)C(=O)N[C@@H](CCCCN)C(=O)N[C@@H](CO)C(=O)N[C@@H](CC(N)=O)C(N)=O [D-Glu3,4,7,10,14-Con-G, GdEdEdELQdENQdELIRdEKSN] | 0% |  | stimulation of [3H]MK-801 binding in the absence of spermine (NMDA receptor [1]): stimulated; Emax (NMDA receptor [1]): 30%; inhibition of spermine-induced [3H]MK-801 binding (NMDA receptor [2]): no inhibition
CC[C@H](C)[C@H](NC(=O)[C@H](CC(C)C)NC(=O)[C@H](CC(C(=O)O)C(=O)O)NC(=O)[C@H](CCC(N)=O)NC(=O)[C@H](CC(N)=O)NC(=O)[C@H](COP(=O)(O)O)NC(=O)[C@H](CCC(N)=O)NC(=O)[C@H](CC(C)C)NC(=O)[C@H](CC(C(=O)O)C(=O)O)NC(=O)[C@H](CC(C(=O)O)C(=O)O)NC(=O)[C@H](CCC(=O)O)NC(=O)CN)C(=O)N[C@@H](CCCNC(=N)N)C(=O)N[C@@H](CC(C(=O)O)C(=O)O)C(=O)N[C@@H](CCCCN)C(=O)N[C@@H](CO)C(=O)N[C@@H](CC(N)=O)C(N)=O [Ser(p)7-Con-G, GEggLQS(p)NQgLIRgKSN] | 50±3.8% |  | % Sti (NMDA receptor [1]; forebrain membranes): 0%; inhibition of [3H]MK-801 binding produced by maximally effective spermine (NMDA receptor [2]): 50%; IC50 (NMDA receptor [2]; [3]): 1040 ± 300 nM
GEgS(p)LQgNQgLIRgKSN (GEXSLQXNQXLIRXKSN; phosphoserine) [Ser(p)4-Con-G] | 0% | 0% | 
GEggL-AA-gKSN (GEXXLAAXKSN; gamma-carboxyglutamate residues) [ConG(1-5)AA(14-17)] |  | 0% | 
GEggL-GG-gKSN (GEXXLGGXKSN; gamma-carboxyglutamate residues) [ConG(1-5)GG(14-17)] |  | 0% | 
Y-GEggLQgNQgLIRgKSN [Tyr^o-Con-G] | 0% | 0% | 
CC[C@H](C)[C@H](N)C(=O)N[C@@H](CCCNC(=N)N)C(=O)N[C@@H](CCC(=O)O)C(=O)N[C@@H](CCCCN)C(=O)N[C@@H](CO)C(=O)N[C@@H](CC(N)=O)C(N)=O [Glul4-Con-G(12-17), IREKSN] | 0% |  | stimulation of [3H]MK-801 binding in the absence of spermine (NMDA receptor [1]): stimulated; Emax (NMDA receptor [1]): 30%; inhibition of spermine-induced [3H]MK-801 binding (NMDA receptor [2]): no inhibition
F(pC1)-GEggLQgNQgLIRgKSN (FGEXXLQXNQXLIRXKSN; N-terminal p-chloro-Phe; gamma-carboxyglutamate residues) [Phe(pCl)^o-Con-G] | 0% | 0% | 
GEYgLQgNQgLIRgKSN [Tyr3-Con-G] | 0% | 0% | 
GEggLQ-AAAAAAA-gKSN (GE[Gla′][Gla′]LQAAAAAAA[Gla′]KSN) [ConG(1-6)A7(14-17)] |  | 0% | 
GEgALQgNQgLJRgKSN (GEXALQXNQXLIRXKSN; gamma-carboxyglutamate residues) [Ala4-Con-G] | 0% | 0% | 
CC[C@H](C)[C@H](NC(=O)[C@H](CC(C)C)NC(=O)[C@H](CC(C(=O)O)C(=O)O)NC(=O)[C@H](CCC(N)=O)NC(=O)[C@H](CC(N)=O)NC(=O)[C@H](CC(C(=O)O)C(=O)O)NC(=O)[C@H](CCC(N)=O)NC(=O)[C@H](CC(C)C)NC(=O)[C@H](CC(C(=O)O)C(=O)O)NC(=O)[C@H](CC(C(=O)O)C(=O)O)NC(=O)[C@H](CCC(=O)O)NC(=O)CN)C(=O)N[C@@H](CCCNC(=N)N)C(=O)N[C@@H](COP(=O)(O)O)C(=O)N[C@@H](CCCCN)C(=O)N[C@@H](CO)C(=O)N[C@@H](CC(N)=O)C(N)=O [Ser(p)14-Con-G, GEggLQgNQgLIRS(p)KSN] | 31 ± 0.5% |  | % Sti (NMDA receptor [1]; forebrain membranes): 0%; inhibition of [3H]MK-801 binding produced by maximally effective spermine (NMDA receptor [2]): 31%; IC50 (NMDA receptor [2]; [3]): 1120 ± 50 nM
QENQELIREKSN [Glu 7,10,14-Con-G (6-17)] | 0% | 0% | 
Ac-GEggLQgNQgLIRgKSN [Ac-Con-G] | 0% | 0% | activity, inhibitory or stimulatory (NMDA receptor [1]): no apparent activity
NCCCCNCCCN [Spermidine, reference compound] | 0% |  | Emax (NMDA receptor [1]): 97%
GEggL-GGGG-gKSN (GEXXLGGGGXKSN; gamma-carboxyglutamate residues) [ConG(1-5)GGGG(14-17)] |  | 0% | 
GEggLQgNQgLIRgKSN-OH [Con-G-OH] | 0% | 0% | activity, inhibitory or stimulatory (NMDA receptor [1]): no activity
Y(oMe)-GEggLQgNQgLIRgKSN (YGEXXLQXNQXLIRXKSN; O-methyl tyrosine) [Tyr(oMe)^o-Con-G] | 0% | 0% | 
RgKSN (R[Gla′]KSN) [Con-G(13-17)] |  |  | activity in [3H]MK-801 binding (spanning cell of Table II) (NMDA receptor [1]): inactive
IAEASN [Ala13,15, Glul4-Con-G(12-17)] |  |  | activity in [3H]MK-801 binding (spanning cell of Table II) (NMDA receptor [1]): inactive
GEggL-AAA-gKSN (GEXXLAAAXKSN; gamma-carboxyglutamate residues) [ConG(1-5)AAAA(14-17)] |  | 0% | 
GEggLQ-AAAAA-gKSN (GE[Gla′][Gla′]LQAAAAA[Gla′]KSN) [ConG(1-6)AS(14-17)] |  | 0% | 
GEggL-cyclic (GEXXL; cyclic; gamma-carboxyglutamate residues) [Cyclic ConG(1-5)] |  |  | activity in [3H]MK-801 binding (spanning cell of Table II) (NMDA receptor [1]): inactive
IREASN [Glu 14, Alal5-Con-G(12-17)] |  |  | activity in [3H]MK-801 binding (spanning cell of Table II) (NMDA receptor [1]): inactive
RSgNK (RS[Gla′]NK) [scrambled Con-G] |  |  | activity in [3H]MK-801 binding (spanning cell of Table II) (NMDA receptor [1]): inactive
GEggL-BB-gKSN [ConG(1-5)BB(14-17)] |  | 0% | 
